# Assays:
# [1] = RSV dissolution in different liquid lipophilic excipients; type: physicochemical
# Source text: Lipophilic excipients must have peculiar features from a physicochemical perspective (i.e., solid at room temperature, chemically inert, high capacity to incorporate drugs, and capable of protecting the latter from physicochemical degradation phenomena) and a biological point of view (i.e., biocompatible, neither carcinogenic or teratogens nor allergenic, and poorly oxidizable) to use them for generating both pharmaceutical and cosmetic formulations. Here, 1-Hexadecanol (EXA) as non-toxic, biocompatible, biodegradable long-chain fatty alcohol was chosen as a solid lipid, as its surfactant characteristic allows this excipient to behave as an emulsifier agent, avoiding the need for further surfactant addition usually required for SLMs preparation using melt dispersion method. In addition, EXA was shown a certain effectiveness in the inhibition of S. aureus growth.
# S. aureus = settings: LB-agar as growth medium; cited from earlier work
# [2] = Preliminary RSV solubility tests in buffer solutions; type: physicochemical; settings: 32 °C, mean ± SE (n = 3)
# Procedure: […] […] The suspension was kept in a thermostatic water bath (Heidolph MR3001K Hotplate Stirrer with Heidolph EXT3001 Temperature Probe, Heidolph Instruments, Schwabach, Germany) at 32 °C and stirred for 120 min. The samples were then centrifuged for 15 min at 15.000 rpm (mySPIN™ 12 Mini Centrifuge, Thermo Fisher Scientific, Waltham, MA, USA), to remove any precipitate. The supernatant was collected, diluted in methanol, and quantified by a UV-Vis spectrophotometer. The experiments were performed in triplicate.
# [3] = parameters: method as in PMID 28659908; settings: cited from earlier work
structure (smiles),measurement,setting,value
"Oc1ccc(/C=C/c2cc(O)cc(O)c2)cc1 [RSV, 3,4′, 5-trihydroxy-trans-stilbene]",RSV dissolution (appearance),"[1]; Gelucire 62/05, RSV 5% w/w",Opalescent
same,RSV dissolution (appearance),"[1]; Gelucire 62/05, RSV 10% w/w",Opalescent
same,RSV dissolution (appearance),"[1]; Gelucire 62/05, RSV 15% w/w",Opalescent
same,RSV dissolution (appearance),"[1]; Glyceryl Monostearate, RSV 5% w/w",Opalescent
same,RSV dissolution (appearance),"[1]; Glyceryl Monostearate, RSV 10% w/w",Opalescent
same,RSV dissolution (appearance),"[1]; Glyceryl Monostearate, RSV 15% w/w",Opalescent
same,RSV dissolution (appearance),"[1]; Isostearyl Isostearate, RSV 5% w/w",Opalescent
same,RSV dissolution (appearance),"[1]; Isostearyl Isostearate, RSV 10% w/w",Opalescent
same,RSV dissolution (appearance),"[1]; Isostearyl Isostearate, RSV 15% w/w",Opalescent
same,RSV dissolution (appearance),"[1]; Labrafil M-1944, RSV 5% w/w",Opalescent
same,RSV dissolution (appearance),"[1]; Labrafil M-1944, RSV 10% w/w",Opalescent
same,RSV dissolution (appearance),"[1]; Labrafil M-1944, RSV 15% w/w",Opalescent
same,RSV dissolution (appearance),"[1]; Labrafil M-2130, RSV 5% w/w",Opalescent
same,RSV dissolution (appearance),"[1]; Labrafil M-2130, RSV 10% w/w",Opalescent
same,RSV dissolution (appearance),"[1]; Labrafil M-2130, RSV 15% w/w",Opalescent
same,RSV dissolution (appearance),"[1]; Labrasol, RSV 5% w/w",Clear
same,RSV dissolution (appearance),"[1]; Labrasol, RSV 10% w/w",Clear
same,RSV dissolution (appearance),"[1]; Labrasol, RSV 15% w/w",Slightly Opalescent
same,RSV dissolution (appearance),"[1]; Soy Lecithin, RSV 5% w/w",Opalescent
same,RSV dissolution (appearance),"[1]; Soy Lecithin, RSV 10% w/w",Opalescent
same,RSV dissolution (appearance),"[1]; Soy Lecithin, RSV 15% w/w",Opalescent
same,RSV dissolution (appearance),"[1]; Tefose 1500, RSV 10% w/w",Slightly Opalescent
same,RSV dissolution (appearance),"[1]; Tefose 1500, RSV 15% w/w",Opalescent
same,amount of RSV solubilized by Labrasol,[1]; liquid lipid Labrasol,up to 10 % w/w
same,Minimal Inhibitory Concentration (MIC),S. aureus,1000 µg/mL
same,solubility at 120 min,"[2]; PBS buffer solution with BSA 5% w/v, pH 7.4, thermodynamic from solid, PBS + BSA 5%",442 ± 35 µg/mL
same,solubility at 120 min,"[2]; PBS buffer solution with DMSO 10% v/v, pH 7.4, aqueous with cosolvent or surfactant or cyclodextrin, thermodynamic from solid, PBS + DMSO 10%",194 ± 10 µg/mL
same,solubility at 120 min,"[2]; PBS buffer solution with α-CD 0.5% w/v, pH 7.4, aqueous with cosolvent or surfactant or cyclodextrin, thermodynamic from solid, PBS + α-CD 0.5%",153 ± 8 µg/mL
same,solubility at 120 min,"[2]; PBS buffer solution with β-CD 2% w/v, pH 7.4, aqueous with cosolvent or surfactant or cyclodextrin, thermodynamic from solid, PBS + β-CD 2%",886 ± 11 µg/mL
same,solubility at 120 min,"[2]; citrate buffer solution with β-CD 2% w/v, aqueous with cosolvent or surfactant or cyclodextrin, thermodynamic from solid, Citrate buffer (pH 6.2) + β-CD 2%",803 ± 3 µg/mL
same,partition coefficient (LogP),[3],3.09
